# Experimental data published in PubChem BioAssay (NCI).
#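 1) Cells in 96-well plates. 2) Compound, 48 h, 5 concentrations. 3) Linear interpolation between surrounding doses. 4) Unreached endpoint = highest concentration. At the GI50, growth is halved. TGI: total growth inhibition.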
# Columns and labels:
# Test in all cases: growth of human tumour cells (NCI), 48 h
# [1] = tested on: SF-268 CNS
# [2] = tested on: HOP-92 NSCLC
# [3] = tested on: A498 renal
# [4] = tested on: SK-MEL-2 melanoma
# [5] = tested on: OVCAR-5 ovarian
# [6] = tested on: UO-31 renal
# [7] = tested on: CAKI-1 renal
# [8] = tested on: EKVX NSCLC
# [9] = tested on: K-562 leukemia
# [10] = tested on: A549 NSCLC
SMILES,GI50 [1] [µM],TGI [1] [µM],GI50 [2] [µM],TGI [2] [µM],GI50 [3] [µM],TGI [3] [µM],GI50 [4] [µM],TGI [4] [µM],GI50 [5] [µM],TGI [5] [µM],GI50 [6] [µM],TGI [6] [µM],GI50 [7] [µM],TGI [7] [µM],GI50 [8] [µM],TGI [8] [µM],GI50 [9] [µM],TGI [9] [µM],GI50 [10] [µM],TGI [10] [µM]
CCCCCCCCCCCCCCCC1=NC(C)(C)CN1C(C)C,1.47,2.79,1.1,3.45,2.41,6.24,1.63,3.07,1.55,2.93,1.44,2.84,1.13,2.53,1.74,4.24,0.448,1.72,1.81,3.43
CC(=O)c1nc2ccccc2n1CC(=O)c1cccc(Cl)c1,1.12,> 71.7,,> 86.2,6.52,88.6,0.505,98,3.42,> 71.4,1.27,> 100,2.78,> 20.1,4.33,> 100,0.113,> 44.1,2.67,> 100
O=C(CCC(=O)C1CCC/C1=N/O)Nc1ccc(Cl)cc1 (centres undefined),,> 100,,> 100,,> 100,,> 100,,> 100,,> 100,,> 100,,> 100,,> 100,,> 100
Cc1c([N+](=O)[O-])oc2ccc3ccccc3c12,,> 100,,> 100,,> 100,,> 100,,> 100,,> 100,,> 100,,> 100,,> 100,,> 100
C=C1C(=O)O[C@H]2[C@H]1CC/C(COC(=O)NCc1ccc(Cn3c(=O)sn(-c4ccccc4)c3=O)cc1)=C\CC[C@@]1(C)O[C@@H]21,2.21,5,1.82,3.44,3.91,14.5,2.39,6.34,2.51,6.73,1.68,3.16,2.49,6.1,1.85,4.38,1.8,> 100,6.22,20.6
Cc1cc(I)cc(CN(C)CCCN2CCN(C)CC2)c1O,35,> 100,37.9,> 100,23.6,54.2,22.3,46.1,78.7,> 100,37.5,> 100,20.3,47.3,79.3,> 100,14.6,40.1,36,> 100
CC1(C)C(=O)/C(=C\c2cccnc2)C[C@]2(C)[C@H]3CC[C@@H]4[C@@H](C(=O)/C=C/c5ccncc5)CC[C@@]4(C)[C@]3(C)CC[C@@H]12,2.41,6.53,1.48,3.39,1.89,3.7,1.93,4.38,2.45,5.36,1.67,3.04,2.51,6.46,2.82,9.2,1.2,> 100,2.62,10.7
Cc1ccc([C@]2(C)CC[C@H](C)/C2=C\Br)c(O)c1,6.18,21.7,10.4,25.2,5.31,20.3,2.82,17.9,6.3,18.6,6.37,20.3,4.32,16.6,5.74,17.7,3.3,11.1,5.85,19
O=C(NC(=S)Nc1cc(Cl)ccc1O)c1cccc(Br)c1,7.83,> 100,10.5,59.2,4.8,51.9,12.1,> 100,57.1,> 100,6.12,56.3,4.34,> 100,17.1,> 100,4.94,> 100,6.19,> 100
C/C(=N\NC(=S)N(C)C)c1ccccn1,,11.7,,17.8,,8.11,0.624,27.2,,6.85,0.166,3.91,0.0567,12.5,0.143,3.07,0.000104,> 41.3,,14.3
Cc1cc(C(=O)c2ccccc2)c(C)c2c1[nH]c1ccc(Cl)cc12,0.715,> 78.3,1.71,21.2,0.0305,0.282,0.0829,29.2,0.294,28,0.102,14.1,0.0521,6.05,0.126,> 100,0.0348,> 100,0.0834,> 100
CC(C)=CCCC(C)C1=C(O)C(=O)C(C)=CC1=O (centres undefined),,56.6,,3.67,,35.1,,34,,33.5,,21.3,,15.1,,> 49.8,,4.37,,> 100
OCCN1CCN(CC/C=C2/c3ccccc3Sc3ccc(Cl)cc32)CC1,,28.3,,20.9,,28.1,,28.3,,30.9,,27.3,,24.4,,31.3,,8.65,,29.9
CC(=O)N/C(=C\c1ccc(Cc2nc3c([nH]2)C(=O)c2ccccc2C3=O)cc1)c1nc2c([nH]1)C(=O)c1ccccc1C2=O,,> 100,,> 100,,> 100,,> 100,,> 100,,> 100,,> 100,,> 100,,> 100,,> 100
O=C(O)C(Oc1nc(=S)[nH]c(=S)[nH]1)(c1ccc(Cl)cc1)c1ccc(Cl)cc1,,> 100,,> 100,,> 100,,> 100,,> 100,,> 100,,> 100,,> 100,,> 100,,> 100
CCN(CC)CCNC(=O)c1cccc2nc3ccccc3nc12,,36.9,,> 73.4,,30.9,,28.2,,41.6,,> 71.7,,> 100,,> 65.4,,> 100,,> 89.1
Oc1ccc(Cc2cc(Cl)cc(Cl)c2O)cc1Cl,,31,,33.9,,33.8,,29.7,,38.9,,31,,51.5,,40.2,,37.6,,41.3
CCN(CC)C(=S)[S][Bi]([S]C(=S)N(CC)CC)[S]C(=S)N(CC)CC,0.455,1.77,0.136,0.276,1.24,2.49,0.3,0.774,0.539,1.07,0.216,0.468,0.199,0.776,0.282,0.732,0.123,> 31.6,1.74,3.27
O=C1C(Cl)=C(Nc2cccc(O)c2)C(=O)N1Cc1ccc(Cl)cc1Cl,6.09,21.9,12.2,26.9,1.57,10.2,1.25,11.1,11.7,29.2,1.87,14.5,13.4,26.7,10,26.6,4.81,29.7,8.33,28.1
